Counter-ions that a name gives are not always drawn.
system: SJSA-1; assay: Protocol B: SJSA-1 CellTiter-Glo cell viability; conditions: Homo sapiens, SJSA-1, 72 h, read-out: SJSA1 IC50 (Protocol B), SJSA-1 cells, CellTiter-Glo, 72 hrs

Q: With Cn1cc(C(C)(O)c2cc(F)c3c(c2)C(=O)N(Cc2ccc(C#N)cn2)[C@@]3(O[C@H]2C[C@@H](O)C2)c2ccc(Cl)cc2)cn1 (stereo partly drawn) [Example 355, 6-{[1-(4-chlorophenyl)-7-fluoro-5-[1-hydroxy-1-(1-methyl-1H-pyrazol-4-yl)ethyl]-3-oxo-1-[cis-3-hydroxycyclobutoxy]-2,3-dihydro-1H-isoindol-2-yl]methyl}pyridine-3-carbonitrile] as the compound, how does the IC50 read?
A: 4.7 µM

Q: How did the IC50 turn out when CC(O)(c1cc(F)c2c(c1)C(=O)N(Cc1ccc(C#N)cn1)[C@@]2(OCC1(C#N)CC1)c1ccc(Cl)cc1)C1CCOCC1 (single isomer, unassigned) [Example 282] was run?
A: 0.061 µM

Q: For Cc1c[nH]c(C(C)(O)c2cc(F)c3c(c2)C(=O)N(Cc2ccc(Cl)cn2)[C@@]3(OCC2(O)CC2)c2ccc(Cl)cc2)n1 (mixture of isomers) [Example 332, (3R)-3-(4-chlorophenyl)-2-[(5-chloropyridin-2-yl)methyl]-4-fluoro-6-[1-hydroxy-1-(4-methyl-1H-imidazol-2-yl)ethyl]-3-[(1-hydroxycyclopropyl)methoxy]-2,3-dihydro-1H-isoindol-1-one], which IC50 is on record?
A: 2.6 µM

Q: With CO[C@]1(c2ccc(Cl)cc2)c2c(F)cc(C(C)(O)c3cnn(C4CN(C(C)=O)C4)c3)cc2C(=O)N1Cc1ccc(Cl)cn1 (single isomer, unassigned) [Example 182] as the compound, how does the IC50 read?
A: 0.88 µM

Q: With CO[C@]1(c2ccc(Cl)cc2)c2c(F)cc(C(C)(O)C3CN(C(=O)CO)C3)cc2C(=O)N1Cc1ccc(Cl)cn1 (single isomer, unassigned) [Example 391] as the compound, how does the IC50 read?
A: 0.66 µM

same assay, conditions: Homo sapiens, SJSA-1, 72 h, read-out: SJSA1 IC50 (μM) (Protocol B), SJSA-1, Protocol B (CellTiter-Glo), 72 hrs

Q: With CCC(O)(c1cc(F)c2c(c1)C(=O)N(Cc1ccc(Cl)cn1)[C@@]2(OC[C@@H](C)O)c1ccc(Cl)cc1)C1(F)CCNCC1 (single isomer, unassigned) [Example 549] as the compound, how does the IC50 read?
A: 0.27 µM

Q: For CC[C@@](O)(c1cc(F)c2c(c1)C(=O)N(Cc1ncc(Cl)cc1O)[C@@]2(O[C@H]1CCOC1)c1ccc(Cl)cc1)C1CCN(C)CC1 [Example 568, 2-[(5-chloro-3-hydroxypyridin-2-yl)methyl]-3-(4-chlorophenyl)-4-fluoro-6-[(1S)-1-hydroxy-1-(1-methylpiperidin-4-yl)propyl]-3-[(3S)-oxolan-3-yloxy]-2,3-dihydro-1H-isoindol-1-one], which IC50 is on record?
A: 0.094 µM

Q: With CC[C@@](O)(c1cc(F)c2c(c1)C(=O)N(Cc1ncc(Cl)cc1C(=O)O)[C@@]2(OC)c1ccc(Cl)cc1)C1(F)CCOCC1 [Example 514, 5-chloro-2-{[(1R)-1-(4-chlorophenyl)-7-fluoro-5-[(1R)-1-(4-fluorooxan-4-yl)-1-hydroxypropyl]-1-methoxy-3-oxo-2,3-dihydro-1H-isoindol-2-yl]methyl}pyridine-3-carboxylic acid (tris(hydroxymethyl)aminomethane salt)] as the compound, how does the IC50 read?
A: 0.64 µM

Q: Which IC50 does the source give for CCC(O)(c1cc(F)c2c(c1)C(=O)N(Cc1ccc(C#N)cn1)[C@@]2(O[C@H]1CCOC1)c1ccc(Cl)cc1)C1(F)CCNCC1 (single isomer, unassigned) [Example 546] here?
A: 0.7 µM

Q: CCC(O)(c1cc(F)c2c(c1)C(=O)N(Cc1ncc(Cl)cn1)[C@@]2(O[C@H]1C[C@@H](O)C1)c1ccc(Cl)cc1)C1(F)CCNCC1 (single isomer, unassigned) [Example 542] was tested. Which IC50 did it give?
A: 3.1 µM

Q: With CCC(O)(c1cc(F)c2c(c1)C(=O)N(Cc1ncc(Cl)cn1)[C@@]2(O[C@H]1CCOC1)c1ccc(Cl)cc1)C1CCNCC1 (single isomer, unassigned) [Example 448] as the compound, how does the IC50 read?
A: 0.86 µM

Q: For CC[C@](O)(c1cc(F)c2c(c1)C(=O)N(Cc1ncc(C#N)cn1)[C@@]2(O[C@H]1C[C@@H](O)C1)c1ccc(Cl)cc1)C1(F)CCOCC1 [Example 506, 2-{[(1R)-1-(4-chlorophenyl)-7-fluoro-5-[(1S)-1-(4-fluorooxan-4-yl)-1-hydroxypropyl]-3-oxo-1-[cis-3-hydroxycyclobutoxy]-2,3-dihydro-1H-isoindol-2-yl]methyl}pyrimidine-5-carbonitrile], which IC50 is on record?
A: 3.4 µM

Q: For CC[C@@](O)(c1cc(F)c2c(c1)C(=O)N(Cc1ncc(Cl)cn1)[C@@]2(O[C@H]1C[C@@H](O)C1)c1ccc(Cl)cc1)C1CCN(C)CC1 [Example 560, (3R)-3-(4-chlorophenyl)-2-[(5-chloropyrimidin-2-yl)methyl]-4-fluoro-6-[(1S)-1-hydroxy-1-(1-methylpiperidin-4-yl)propyl]-3-[cis-3-hydroxycyclobutoxy]-2,3-dihydro-1H-isoindol-1-one], which IC50 is on record?
A: 0.13 µM

Q: With CCC(O)(c1cc(F)c2c(c1)C(=O)N(Cc1ncc(Cl)cn1)[C@@]2(OCC1(C#N)CC1)c1ccc(Cl)cc1)C1(F)CCNCC1 (single isomer, unassigned) [Example 545] as the compound, how does the IC50 read?
A: 0.094 µM

Q: With CC[C@@](O)(c1cc(F)c2c(c1)C(=O)N(Cc1ncc(C#N)cn1)[C@@]2(O[C@H]1CCOC1)c1ccc(Cl)cc1)C1(F)CCOCC1 [Example 507, 2-{[(1R)-1-(4-chlorophenyl)-7-fluoro-5-[(1R)-1-(4-fluorooxan-4-yl)-1-hydroxypropyl]-3-oxo-1-[(3S)-oxolan-3-yloxy]-2,3-dihydro-1H-isoindol-2-yl]methyl}pyrimidine-5-carbonitrile] as the compound, how does the IC50 read?
A: 0.02 µM

Q: Which IC50 does the source give for CCC(O)(c1cc(F)c2c(c1)C(=O)N(Cc1ccc(C#N)cn1)[C@@]2(OCC1(CO)CC1)c1ccc(Cl)cc1)c1cn(C)cn1 (stereo partly drawn) [Example 337, 6-{[(1R)-1-(4-chlorophenyl)-7-fluoro-5-[1-hydroxy-1-(1-methyl-1H-imidazol-4-yl)propyl]-1-{[1-(hydroxymethyl)cyclopropyl]methoxy}-3-oxo-2,3-dihydro-1H-isoindol-2-yl]methyl}pyridine-3-carbonitrile] here?
A: 0.058 µM

Q: With [2H]C([2H])(O)C1(C([2H])([2H])O[C@]2(c3ccc(Cl)cc3)c3c(F)cc(C(C)(O)C4(F)CCOCC4)cc3C(=O)N2Cc2ncc(Cl)cn2)CC1 (single isomer, unassigned) [Example 447] as the compound, how does the IC50 read?
A: 0.011 µM

Q: With CCC(O)(c1cc(F)c2c(c1)C(=O)N(Cc1ccc(C#N)cn1)[C@@]2(O[C@H]1CCOC1)c1ccc(Cl)cc1)c1ccn(C)c(=O)c1 (single isomer, unassigned) [Example 374] as the compound, how does the IC50 read?
A: 0.85 µM

same assay, conditions: read-out: SJSA1 IC50 (Protocol B); SJSA-1 cells, CellTiter-Glo, 72 hrs

Q: With Cc1nnc(C(C)(O)c2cc(F)c3c(c2)C(=O)N(Cc2ccc(Cl)cn2)[C@@]3(OCC2(O)CC2)c2ccc(Cl)cc2)o1 (stereo partly drawn) [Example 185, (3R)-3-(4-Chlorophenyl)-2-[(5-chloropyridin-2-yl)methyl]-4-fluoro-6-[1-hydroxy-1-(5-methyl-1,3,4-oxadiazol-2-yl)ethyl]-3-[(1-hydroxycyclopropyl)methoxy]-2,3-dihydro-1H-isoindol-1-one] as the compound, how does the IC50 read?
A: 2.2 µM

Q: With CO[C@]1(c2ccc(Cl)cc2)c2c(F)cc(C(C)(O)c3cn(C)c(C)n3)cc2C(=O)N1Cc1ccc(Cl)cn1 (single isomer, unassigned) [Example 161] as the compound, how does the IC50 read?
A: 4.3 µM

Q: With CO[C@]1(c2ccc(Cl)cc2)c2c(F)cc(C(C)(O)c3cnn(CCN(C)C)c3)cc2C(=O)N1Cc1ccc(Cl)cn1 (single isomer, unassigned) [Example 192] as the compound, how does the IC50 read?
A: 1.4 µM

Q: [2H]C([2H])(O)C1(C([2H])([2H])O[C@]2(c3ccc(Cl)cc3)c3c(F)cc(C(C)(O)c4cnn(C)c4)cc3C(=O)N2Cc2ccc(C#N)cn2)CC1 (single isomer, unassigned) [Example 353] was tested. Which IC50 did it give?
A: 0.27 µM

Q: How did the IC50 turn out when CO[C@]1(c2ccc(Cl)cc2)c2c(F)cc(C(C)(O)c3ccn(C)n3)cc2C(=O)N1Cc1ccc(Cl)cn1 (stereo partly drawn) [Example 190, (3R)-3-(4-Chlorophenyl)-2-[(5-chloropyridin-2-yl)methyl]-4-fluoro-6-[1-hydroxy-1-(1-methyl-1H-pyrazol-3-yl)ethyl]-3-methoxy-2,3-dihydro-1H-isoindol-1-one] was run?
A: 5 µM

Q: Which IC50 does the source give for CO[C@]1(c2ccc(Cl)cc2)c2c(F)cc(C(C)(O)c3ccn(C)n3)cc2C(=O)N1Cc1ccc(Cl)cn1 (stereo partly drawn) [Example 189, (3R)-3-(4-Chlorophenyl)-2-[(5-chloropyridin-2-yl)methyl]-4-fluoro-6-[1-hydroxy-1-(1-methyl-1H-pyrazol-3-yl)ethyl]-3-methoxy-2,3-dihydro-1H-isoindol-1-one] here?
A: 1 µM

Q: Cc1nnc(C(C)(O)c2cc(F)c3c(c2)C(=O)N(Cc2ccc(Cl)cn2)[C@@]3(OCC2(O)CC2)c2ccc(Cl)cc2)o1 (stereo partly drawn) [Example 186, (3R)-3-(4-Chlorophenyl)-2-[(5-chloropyridin-2-yl)methyl]-4-fluoro-6-[1-hydroxy-1-(5-methyl-1,3,4-oxadiazol-2-yl)ethyl]-3-[(1-hydroxycyclopropyl)methoxy]-2,3-dihydro-1H-isoindol-1-one] was tested. Which IC50 did it give?
A: 0.42 µM

Q: CO[C@]1(c2ccc(Cl)cc2)c2c(F)cc(C(C)(O)C3CN(C(C)=O)C3)cc2C(=O)N1Cc1ccc(Cl)cn1 (single isomer, unassigned) [Example 390] was tested. Which IC50 did it give?
A: 0.63 µM

Q: For COc1ccc(CN2C(=O)c3cc(C(C)(O)c4cnn(C)c4)cc(F)c3[C@]2(OCC2(CO)CC2)c2ccc(Cl)cc2)nc1 (single isomer, unassigned) [Example 224], which IC50 is on record?
A: 0.12 µM

Q: For CO[C@]1(c2ccc(Cl)cc2)c2c(F)cc(C(C)(O)c3nccs3)cc2C(=O)N1Cc1ccc(Cl)cn1 (stereo partly drawn) [Example 166, (3R)-3-(4-Chlorophenyl)-2-[(5-chloropyridin-2-yl)methyl]-4-fluoro-6-[1-hydroxy-1-(1,3-thiazol-2-yl)ethyl]-3-methoxy-2,3-dihydro-1H-isoindol-1-one], which IC50 is on record?
A: 3.8 µM

same assay, conditions: read-out: SJSA1 IC50 (μM) (Protocol B); SJSA-1, Protocol B (CellTiter-Glo), 72 hrs

Q: With CCC(O)(c1cc(F)c2c(c1)C(=O)N(Cc1ncc(C#N)cn1)[C@@]2(O[C@H]1CCOC1)c1ccc(Cl)cc1)c1ccn(C)n1 (single isomer, unassigned) [Example 490] as the compound, how does the IC50 read?
A: 0.27 µM

Q: [2H]C([2H])(O)C1(C([2H])([2H])O[C@]2(c3ccc(Cl)cc3)c3c(F)cc(C(O)(CC)c4cn(C)cn4)cc3C(=O)N2Cc2ccc(C#N)cn2)CC1 (single isomer, unassigned) [Example 440] was tested. Which IC50 did it give?
A: 1.9 µM

Q: CC(O)(c1cc(F)c2c(c1)C(=O)N(Cc1ncc(Cl)cn1)[C@@]2(OCC1(CO)CC1)c1ccc(Cl)cc1)[C@H]1CC[C@H](O)CC1 (single isomer, unassigned) [Example 401] was tested. Which IC50 did it give?
A: 0.0098 µM

Source: patent US10526311B2 (ASTEX THERAPEUTICS LIMITED, priority 2015, dated 2020)
